Columns and labels:
[1] = tested on: CD8 on peripheral blood cell; assay: Effects on the expression of CD8 on peripheral blood cell in mice (flow cytometry); type: in vivo, mice (C57 BL/6); conditions: intragastric, once a day for four days, mouse peripheral blood
Procedure: (§1) FITC Rat Anti-Mouse CD8a: BD, Cat. #553030.
(§2) PE Rat Anti-Mouse CD4: BD, Cat. #557308.
(§3) APC Rat Anti-Mouse CD19: BD, Cat. #561738.
(§4) The compounds used in the test were prepared by the chemical department of Beijing Forelandpharma Co. Ltd.
(§5) Routs of administration: intragastric administration, once a day, and continuous administration for four days.
(§6) After the administration, supraorbital venous blood was collected from the mouse, added to an EP tube (1.5 ml) containing an anticoagulant, and kept on the ice. The resulting mixture was transferred to a test tube, centrifuged at 4° C. and 1200 rpm/min for 5 min, removed with the supernatant liquid, added with a lysate, processed with cell lysis on the ice for 5 min, then pre-dyed, added with diluted antibody, and incubated away from light for 30 min. After the incubation, the resulting mixture was washed, removed with the supernatant liquid, added with stationary liquid, and kept in a refrigerator at 4° C. away from light for the test of flow cytometry.

[2] = tested on: CD4 on peripheral blood cell; assay: Effects on the expression of CD4 on peripheral blood cell in mice (flow cytometry); type: in vivo, mice (C57 BL/6); conditions: intragastric, once a day for four days, mouse peripheral blood
Procedure: as §1, §2, §3, §4, §5, §6

[3] = tested on: CD19 on peripheral blood cell; assay: Effects on the expression of CD19 on peripheral blood cell in mice (flow cytometry); type: in vivo, mice (C57 BL/6); conditions: intragastric, once a day for four days, mouse peripheral blood
Procedure: as §1, §2, §3, §4, §5, §6

[4] = target: S1P3 (Homo sapiens (Human), UniProt Q99500); assay: PathHunter β-arrestin test S1P3; type: cell-based; conditions: PathHunter β-arrestin engineering cells
Procedure: (§7) 1. PathHunter β-arrestin testing system was used to detect the biological activity of the compounds.
(§8) 2. β-arrestin engineering cells were cultured on […] culture plates and placed in an incubator at 37° C.
(§9) 3. The sample to be tested was diluted with reaction solution in 5-fold dilution.
(§10) 4. The diluted sample to be tested was added to the engineering cells and the reaction was induced and observed.
(§11) 5. The chemiluminescence signal produced in the test may be detected by multifunctional enzyme marker (PerkinElmer Envision™).
(§12) Test Analysis and Results
(§13) 6. The data obtained was analyzed using the data analysis software of CBIS (ChemInnovation, CA) to achieve EC50, and the test results are shown in Table 2.

[5] = target: S1P4 (Homo sapiens (Human), UniProt O95977); assay: PathHunter β-arrestin test S1P4; type: cell-based; conditions: PathHunter β-arrestin engineering cells
Procedure: as §7, §8, §9, §10, §11, §12, §13

[6] = target: S1P1 (Homo sapiens (Human), UniProt P21453); assay: PathHunter β-arrestin test S1P1; type: cell-based; conditions: PathHunter β-arrestin engineering cells
Procedure: as §7, §8, §9, §10, §11, §12, §13

[7] = target: S1P2 (Homo sapiens (Human), UniProt O95136); assay: PathHunter β-arrestin test S1P2; type: cell-based; conditions: PathHunter β-arrestin engineering cells
Procedure: as §7, §8, §9, §10, §11, §12, §13

[8] = target: hERG potassium channel (Homo sapiens (Human), UniProt Q12809); assay: hERG patch clamp test in HEK293 engineering cells; type: cell-based; conditions: HEK293 cells stably expressing hERG potassium channel
Procedure: 1. HEK293 engineering cells stably expressed with hERG potassium channel were used to test the compounds.
The cells were separated by TrypLE™ Express before the test. 3×10^3 of cells were spread on a cover plate, cultured in 24-well plate and tested 18 hours later. The signals produced by voltage stimulation of potassium currents in cells were recorded by electrophysiological techniques.
Data Analysis and Results
First of all, currents after the action of drug of each concentration and blank control were standardized separately
[formula] and then the corresponding inhibition ratio of each concentration was calculated
[formula] The average and the standard error were calculated for each concentration, and 50% inhibiting concentration of each compound was calculated according to the following equation: […]
The dose-dependent effect was obtained through nonlinear fitting with the equation above. C refers to drug concentration, IC50 refers to 50% inhibiting concentration and h refers to hill coefficient. The curve fitting and the calculation of IC50 were processed by IGOR software.

[9] = target: S1P5 (Homo sapiens (Human), UniProt Q9H228); assay: Fluorescence detection FLIPR assay, activation of GPCR (S1P5); type: cell-based; conditions: total detection time 180 s, read-out: FLIPR Test EC50 S1P5
Procedure: The sample to be tested was dissolved in DMSO and diluted with detection buffer solution in 3-fold dilution. A reagent and a positive control were diluted in the same way.
The reactions of the agonist, the reagent and the positive control were detected by a device of […] with a total detection time of 180 s to estimate the ability to activate GPCR (S1P5) of each compound.

Chain of hERG potassium channel (Q12809 whole entry): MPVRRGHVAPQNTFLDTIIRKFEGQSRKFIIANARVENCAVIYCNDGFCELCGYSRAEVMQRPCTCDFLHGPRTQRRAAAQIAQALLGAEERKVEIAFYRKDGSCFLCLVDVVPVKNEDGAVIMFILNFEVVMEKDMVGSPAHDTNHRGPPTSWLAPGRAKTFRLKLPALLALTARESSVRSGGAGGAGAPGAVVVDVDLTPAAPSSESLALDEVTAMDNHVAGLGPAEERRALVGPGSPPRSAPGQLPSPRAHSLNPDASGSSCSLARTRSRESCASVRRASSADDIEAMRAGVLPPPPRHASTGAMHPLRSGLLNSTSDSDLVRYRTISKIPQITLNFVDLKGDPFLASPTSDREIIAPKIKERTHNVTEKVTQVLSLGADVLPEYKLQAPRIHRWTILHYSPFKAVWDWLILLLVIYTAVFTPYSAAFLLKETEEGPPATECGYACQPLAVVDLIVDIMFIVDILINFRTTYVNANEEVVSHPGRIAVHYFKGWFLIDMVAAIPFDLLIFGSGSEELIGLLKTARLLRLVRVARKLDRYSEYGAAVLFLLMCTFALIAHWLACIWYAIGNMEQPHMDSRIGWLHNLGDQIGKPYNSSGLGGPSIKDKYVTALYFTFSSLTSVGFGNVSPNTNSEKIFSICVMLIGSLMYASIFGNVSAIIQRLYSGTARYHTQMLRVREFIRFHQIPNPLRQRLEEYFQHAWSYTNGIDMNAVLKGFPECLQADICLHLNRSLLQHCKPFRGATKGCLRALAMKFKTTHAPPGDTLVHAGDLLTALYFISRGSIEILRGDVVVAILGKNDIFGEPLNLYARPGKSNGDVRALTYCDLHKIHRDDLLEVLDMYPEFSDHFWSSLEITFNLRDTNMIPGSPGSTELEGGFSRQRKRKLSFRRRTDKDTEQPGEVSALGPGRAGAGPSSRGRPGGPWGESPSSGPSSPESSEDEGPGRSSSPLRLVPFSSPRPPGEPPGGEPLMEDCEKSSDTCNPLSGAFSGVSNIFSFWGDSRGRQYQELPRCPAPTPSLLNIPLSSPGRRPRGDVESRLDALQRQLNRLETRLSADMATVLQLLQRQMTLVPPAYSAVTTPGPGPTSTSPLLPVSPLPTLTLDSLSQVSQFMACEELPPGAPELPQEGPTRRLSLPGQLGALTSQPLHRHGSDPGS
Chain of S1P5 (Q9H228 whole entry, species assumed): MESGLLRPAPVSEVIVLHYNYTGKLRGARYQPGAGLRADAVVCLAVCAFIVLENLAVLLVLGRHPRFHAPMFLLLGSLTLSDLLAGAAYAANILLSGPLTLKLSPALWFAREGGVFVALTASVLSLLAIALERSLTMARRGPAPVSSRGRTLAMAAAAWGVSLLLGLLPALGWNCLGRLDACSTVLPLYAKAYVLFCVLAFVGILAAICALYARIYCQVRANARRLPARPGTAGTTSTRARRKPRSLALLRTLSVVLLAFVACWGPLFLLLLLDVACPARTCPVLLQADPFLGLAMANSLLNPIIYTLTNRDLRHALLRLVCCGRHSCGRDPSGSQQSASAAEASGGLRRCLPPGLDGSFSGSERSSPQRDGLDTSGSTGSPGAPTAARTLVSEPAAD
Chain of S1P3 (Q99500 whole entry, species assumed): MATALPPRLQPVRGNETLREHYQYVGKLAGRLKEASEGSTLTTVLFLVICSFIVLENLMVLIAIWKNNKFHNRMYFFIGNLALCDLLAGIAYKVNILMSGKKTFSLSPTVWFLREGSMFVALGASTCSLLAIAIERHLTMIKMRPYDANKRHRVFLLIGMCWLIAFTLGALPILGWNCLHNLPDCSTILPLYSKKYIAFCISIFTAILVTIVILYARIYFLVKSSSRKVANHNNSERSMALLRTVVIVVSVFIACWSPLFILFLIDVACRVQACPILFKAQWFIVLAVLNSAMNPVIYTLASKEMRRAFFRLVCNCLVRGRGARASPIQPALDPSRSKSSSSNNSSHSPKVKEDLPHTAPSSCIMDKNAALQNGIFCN
Chain of S1P2 (O95136 whole entry, species assumed): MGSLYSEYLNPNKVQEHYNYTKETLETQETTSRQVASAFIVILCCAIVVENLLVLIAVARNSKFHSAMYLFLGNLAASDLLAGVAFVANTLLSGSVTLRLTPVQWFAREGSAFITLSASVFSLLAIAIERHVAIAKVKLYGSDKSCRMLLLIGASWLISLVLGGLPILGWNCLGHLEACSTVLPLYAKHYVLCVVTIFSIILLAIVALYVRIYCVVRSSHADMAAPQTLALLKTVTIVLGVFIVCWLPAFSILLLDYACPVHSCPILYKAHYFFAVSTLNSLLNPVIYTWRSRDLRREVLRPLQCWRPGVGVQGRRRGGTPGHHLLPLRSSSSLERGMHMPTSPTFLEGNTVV
Chain of S1P1 (P21453 whole entry, species assumed): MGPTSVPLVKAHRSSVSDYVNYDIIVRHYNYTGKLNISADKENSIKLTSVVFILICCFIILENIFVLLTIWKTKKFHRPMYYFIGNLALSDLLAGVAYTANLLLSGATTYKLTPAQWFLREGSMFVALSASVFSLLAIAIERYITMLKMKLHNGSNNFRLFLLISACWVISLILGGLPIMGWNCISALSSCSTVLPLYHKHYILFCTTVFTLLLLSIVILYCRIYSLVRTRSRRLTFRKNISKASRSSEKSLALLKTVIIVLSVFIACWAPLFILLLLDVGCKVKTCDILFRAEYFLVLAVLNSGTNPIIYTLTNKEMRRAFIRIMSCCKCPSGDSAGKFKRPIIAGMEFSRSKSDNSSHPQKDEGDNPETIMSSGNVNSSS
Chain of S1P4 (O95977 whole entry, species assumed): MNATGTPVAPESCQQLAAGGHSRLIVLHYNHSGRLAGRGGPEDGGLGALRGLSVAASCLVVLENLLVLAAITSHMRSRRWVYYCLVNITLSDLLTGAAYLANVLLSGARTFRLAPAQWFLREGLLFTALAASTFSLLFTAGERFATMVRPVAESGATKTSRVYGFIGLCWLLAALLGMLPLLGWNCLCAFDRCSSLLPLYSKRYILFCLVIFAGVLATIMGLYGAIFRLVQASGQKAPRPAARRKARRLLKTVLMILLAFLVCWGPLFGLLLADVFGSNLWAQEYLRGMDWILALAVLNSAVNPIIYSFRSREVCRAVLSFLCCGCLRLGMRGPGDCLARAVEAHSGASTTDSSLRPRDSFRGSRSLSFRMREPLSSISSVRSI

EC50 [4] [nM]	EC50 [5] [nM]	EC50 [6] [nM]	EC50 [7] [nM]	EC50 [9] [nM]	SMILES	CD8 (%) ([1]; 1 mg/kg)	CD8 (%) ([1]; 5 mg/kg)	CD4 (%) ([2]; 1 mg/kg)	CD4 (%) ([2]; 5 mg/kg)	CD19 (%) ([3]; 1 mg/kg)	CD19 (%) ([3]; 5 mg/kg)	IC50 [8] [nM]
					CC(C)Oc1ccc(-c2nnc(-c3ccc4c(c3)C[C@](N)(CO)CC4)o2)cc1F [Example 1, (S)-(2-amino-7-(5-(3-fluoro-4-isopropoxyphenyl)-1,3,4-oxadiazol-2-yl)-1,2,3,4-tetrahydronaphthalen-2-yl)methanol]	10.0	1.8	10.9	1.2	39.0	17.5	
					N[C@@]1(CO)CCc2ccc(-c3nnc(-c4ccc5c(c4)OCO5)o3)cc2C1 [Example 2]	13.0	8.6	23.1	16.4	44.8	35.2	
2110	> 100000	4.56	> 100000	250	CC(C)Oc1ccc(-c2nnc(-c3ccc4c(c3)C[C@](N)(CO)CC4)o2)cc1C#N [Example 3, (S)-5-(5-(7-amino-7-(hydroxymethyl)-5,6,7,8-tetrahydronaphthalen-2-yl)-1,3,4-oxadiazol-2-yl)-2-isopropoxybenzonitrile]	11.9	6.1	22.1	7.2	39.3	24.7	7800
					CC(C)Oc1ccc(-c2nnc(-c3ccc4c(c3)C[C@](N)(CO)CC4)o2)cc1C(N)=O [Example 4, (S)-5-(5-(7-amino-7-(hydroxymethyl)-5,6,7,8-tetrahydronaphthalen-2-yl)-1,3,4-oxadiazol-2-yl)-2-isopropoxybenzamide]	14.5	12.3	27.1	27.0	47.1	43.6	
					N#Cc1cc(-c2nnc(-c3ccc4c(c3)C[C@](N)(CO)CC4)o2)ccc1O [Example 5, (S)-5-(5-(7-amino-7-(hydroxymethyl)-5,6,7,8-tetrahydronaphthalen-2-yl)-1,3,4-oxadiazol-2-yl)-2-hydroxybenzonitrile]	16.8	14.7	31.5	27.1	44.3	43.8	
					COc1ccc(-c2nnc(-c3ccc4c(c3)C[C@](N)(CO)CC4)o2)cc1C(F)(F)F [Example 6, (S)-(2-amino-7-(5-(4-methoxy-3-(trifluoromethyl)phenyl)-1,3,4-oxadiazol-2-yl)-1,2,3,4-tetrahydronaphthalen-2-yl)methanol]	17.0	5.7	17.8	8.7	34.0	29.1	
					N[C@@]1(CO)CCc2ccc(-c3nnc(-c4ccc(F)c(F)c4)o3)cc2C1 [Example 7, (S)-(2-amino-7-(5-(3,4-difluorophenyl)-1,3,4-oxadiazol-2-yl)-1,2,3,4-tetrahydronaphthalen-2-yl)methanol]	14.5	9.2	26.5	13.4	45.2	40.6	

Reference: patent US11584726B2 (Beijing Foreland Pharma Co., Ltd., priority 2017, dated 2023)
